{"source": "paper PMC6284238", "about": "(Neuron, 2017)", "molecular_target": "T1, zebrafish SARM1-TIR (Danio rerio, UniProt F1QWA8)", "T1 sequence (F1QWA8 552-695 limits assumed)": "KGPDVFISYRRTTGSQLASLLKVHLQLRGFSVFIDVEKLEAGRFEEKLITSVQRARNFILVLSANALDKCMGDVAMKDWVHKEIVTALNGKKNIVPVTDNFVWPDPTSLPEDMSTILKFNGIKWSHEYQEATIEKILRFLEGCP", "assay": "NADase assay with HPLC, purified bacterial protein", "assay_type": "biochemical"}
{"smiles": "NC(=O)c1ccc[n+]([C@@H]2O[C@H](COP(=O)([O-])OP(=O)(O)OC[C@H]3O[C@@H](n4cnc5c(N)ncnc54)[C@H](O)[C@@H]3O)[C@@H](O)[C@H]2O)c1", "note": "[NAD^+]", "values": [{"measurement": "NADase assay with HPLC, purified bacterial protein", "result": "bacterially expressed mouse, zebrafish, and Drosophila SARM1-TIR domains also degrade NAD^+ in vitro"}]}
